Laboratory results: patent US20250326794A1, “ANTI-CANCER LEUCINE-RICH PEPTIDES AND USES THEREOF” (KING'S COLLEGE LONDON, priority 2019, published 2025)

Columns and labels:
[1] = tested on: HEK293T (human embryonic kidney cell); test: cells; conditions: 72 h
Source text: (§1) HMLER (human mammary endothelial cancer cells), HMLER-shEcad (human mammary endothelial cancer stem cells), and MCF-10A (healthy human mammary endothelial) cells were maintained in Mammary Epithelial Cell Growth Medium (MEGM) with supplements and growth factors: bovine pituitary extract (BPE), hydrocortisone, human epidermal growth factor (hEGF), insulin, and gentamicin/amphotericin-B. HEK293T (human embryonic kidney cell), and U2OS (Homo sapiens bone osteosarcoma) cells were maintained in Dulbecco's Modified Eagle's Medium (DMEM) with a final concentration of 10% fetal bovine serum. The cells were grown in T75 flask at 310 K in a humidified atmosphere containing 5% CO2.
(§2) The colourimetric MTT (3-(4,5-dimethylthiazol-2-yl)-2,5-diphenyltetrazolium bromide) assay was used to determine the toxicity of the anticancer peptides and conventional anticancer drugs. 5×10^3 cells were seeded in each well of a 96-well microplate. The cells were incubated overnight. Elevated concentrations of the compounds (0, 0.1, 0.2, 0.4, 0.8, 1.6, 3.1, 6.3, 12.5, 25, 50 and 100 μM) were added and incubated for 72 hr with a total volume 200 μL. The stock solutions of the compounds were prepared as 5 mM solutions in DMSO and diluted using media or in pure water. The final concentration of DMSO in each well was either 0.5% or 0% and this amount was present in the untreated control. After 72 hr, 20 μL of a 4 mg/mL solution of MTT in PBS was added to each well, and the plate was incubated for an additional 4 hr. The MEGM/MTT mixture was aspirated and 100 μL of DMSO was added to dissolve the resulting purple formazan crystals. The absorbance of the solutions in each well was read at 550 nm wavelength. Absorbance values were normalized to either DMSO-containing or non DMSO-containing control wells and plotted as concentration of test compound versus % cell viability. IC50 values were interpolated from the resulting dose dependent curves.
(§3) The peptides were screened against several different human cell lines and their cytotoxicity were determined. Cell lines utilised include MCF-10A (human breast epithelial cell), HMLER (human breast cancer bulk cell), HMLER-shEcad (human breast cancer stem cell), HEK293T (human embryonic kidney cell), and U2OS (human bone osteosarcoma).

[2] = tested on: HMLER (human breast cancer bulk cell); test: cells; conditions: 72 h
Source text: as §1, §2, §3

[3] = tested on: HMLER-shEcad (human breast cancer stem cell); test: cells; conditions: 72 h
Source text: as §1, §2, §3

[4] = tested on: U2OS (human bone osteosarcoma); conditions: 72 h
Source text: as §1, §2, §3

[5] = Tryptophan fluorescent binding assay, POPC vesicles; conditions: 50 μM peptide, PBS pH 7.4, lipid per peptide
Description: (§4) In brief, 50 μM peptides were fixed and incubated with titrated POPC vesicles (black) or 3POPC/1POPG vesicles (grey) at concentrations of 0, 12.5, 25, 50, 100, 250, 500, 1000, 2500, and 5000 μM in phosphate buffered saline (1×, pH 7.4). The lipid concentration that causes 50% peptide binding was determined using a tryptophan fluorescent binding assay and the values are shown as lipid per peptide.
(§5) The lipids 1-palmitoyl-2-oleoyl-sn-glycero-3-phosphocholine (POPC), 1-palmitoyl-2-oleoyl-snglycero-3-phospho-(1′-rac-glycerol) (POPG) were purchased from Avanti Polar Lipids and dissolved in chloroform. Large unilamellar vesicles (LUVs) were produced by extrusion through 100 nm pore filter using an extruder and filters purchased from Avanti Polar Lipids.
(§6) Peptides (50 μM) and POPC/POPG LUVs (600 μM) were prepared in 10 mM phosphate buffer (pH 7.0). The solutions were incubated and measured after 60 minutes. Excitation was fixed at 280 nm (slit 9 nm) and emission was collected from 300 to 450 nm (slit 9 nm). The spectra were recorded using a Synergy H1 Hybrid Multi-Mode Reader (FIG. 3A) and Cytation™ 5 Cell Imaging Multi-Mode Reader (FIG. 2) from BioTek and were averaged over 3 scans.
(§7) Table 3 illustrates the lipid concentration-induced 50% peptide binding onto a liposome. 50 μM peptide was fixed and incubated with titrated lipid (POPC vesicles or 3POPC/1POPG vesicles) at concentrations of 0, 12.5, 25, 50, 100, 250, 500, 1000, 2500, and 5000 μM in phosphate buffered saline (1×, pH 7.4). The lipid concentration that causes 50% peptide binding was determined using tryptophan fluorescent binding assay and the values are shown as lipid per peptide. †N-terminus is free, C-terminus: —W—NH2.

[6] = Tryptophan fluorescent binding assay, 3POPC/1POPG vesicles; conditions: 50 μM peptide, PBS pH 7.4, lipid per peptide
Description: as §4, §5, §6, §7

[7] = ANTS/DPX liposome leakage assay, POPC vesicles; format: biochemical; conditions: 0.5 mM vesicles; for Peptide Concentration-induced 50% ANTS/DPX leakage at pH 4.8, POPC Vesicle: pH 4.8, lipid per peptide; for Peptide Concentration-induced 50% ANTS/DPX leakage at pH 7.4, POPC Vesicle: pH 7.4, lipid per peptide
Description: (§8) In brief, 0.5 mM POPC vesicles (grey) or POPC:POPG vesicles (ratio 3:1, black) were incubated with peptide concentrations of 0, 0.02, 0.04, 0.08, 0.16, 0.32, 0.64, 1.25, 2.5, 5, 10, and 20 μM in each A) hydrochloric acid-adjusted phosphate buffered saline (1×, pH 4.8) and B) phosphate buffered saline (1×, pH 7.4).
as §5
(§9) 5 mM ANTS (8-aminonaphthalene-1,3,6-trisulfonic acid, disodium salt) and 12.5 mM DPX (p-xylene-bis-pyridinium bromide) were entrapped in 0.1 μm diameter extruded vesicles with lipids. Gel filtration chromatography using a Sephadex G-100 (GE Healthcare Life Sciences Inc) was used to remove external free ANTS/DPX from LUVs with entrapped contents. LUVs were diluted to 0.5 mM and used to measure the leakage activity by addition of aliquots of peptides. Leakage was measured after 3 h incubation. 10% Triton was used as the positive control to measure the maximum leakage of the vesicle. Fluorescence emission spectra were recorded using excitation and emission wavelength of 350 nm and 510 nm for ANTS/DPX using a BioTek Synergy H1 Hybrid Multi-Mode Reader.
(§10) Table 4 illustrates peptide concentration-induced 50% ANTS/DPX liposome leakage. 0.5 mM POPC and 3POPC/1POPG vesicles were fixed and incubated with titrated peptide concentration ([…]) each in phosphate buffered saline (1×, pH 7.4) and hydrochloric acid-adjusted phosphate buffered saline (1×, pH 4.8). The values are shown as lipid per peptide. †N-terminus is free, C-terminus: —W—NH2.

[8] = ANTS/DPX liposome leakage assay, 3POPC/1POPG vesicles; format: biochemical; conditions: 0.5 mM vesicles; for Peptide Concentration-induced 50% ANTS/DPX leakage at pH 4.8, 3POPC/1POPG Vesicle: pH 4.8, lipid per peptide; for Peptide Concentration-induced 50% ANTS/DPX leakage at pH 7.4, 3POPC/1POPG Vesicle: pH 7.4, lipid per peptide
Description: as §8, §5, §9, §10

Row | SMILES | IC50 [1] [µM] | IC50 [2] [µM] | IC50 [3] [µM] | IC50 [4] [µM] | Lipid Concentration-induced 50% Peptide Binding, POPC Vesicle [5] [L/P] | Lipid Concentration-induced 50% Peptide Binding, 3POPC/1POPG Vesicle [6] [L/P] | Peptide Concentration-induced 50% ANTS/DPX leakage at pH 4.8, POPC Vesicle [7] [L/P] | Peptide Concentration-induced 50% ANTS/DPX leakage at pH 7.4, POPC Vesicle [7] [L/P] | Peptide Concentration-induced 50% ANTS/DPX leakage at pH 4.8, 3POPC/1POPG Vesicle [8] [L/P] | Peptide Concentration-induced 50% ANTS/DPX leakage at pH 7.4, 3POPC/1POPG Vesicle [8] [L/P]
1 | CC(C)C[C@H](NC(=O)CN)C(=O)N[C@@H](CC(C)C)C(=O)N[C@@H](CCCCN)C(=O)N[C@@H](CC(C)C)C(=O)N[C@@H](CC(C)C)C(=O)N[C@@H](Cc1c[nH]cn1)C(=O)N[C@@H](CC(C)C)C(=O)N[C@@H](CC(C)C)C(=O)N[C@@H](CC(C)C)C(=O)N[C@@H](CCC(=O)O)C(=O)N[C@@H](C)C(=O)N[C@@H](C)C(=O)NCC(=O)N[C@@H](Cc1c[nH]c2ccccc12)C(N)=O [KHE] | 26 ± 2.83 | 3.7 ± 0.14 | 2.92 ± 0.17 | 53 ± 2.83 | 0.88 | 0.71 | 183 | 981 | 156 | 188
2 | CC(C)C[C@H](NC(=O)CN)C(=O)N[C@@H](CC(C)C)C(=O)N[C@@H](Cc1c[nH]cn1)C(=O)N[C@@H](CC(C)C)C(=O)N[C@@H](CC(C)C)C(=O)N[C@@H](Cc1c[nH]cn1)C(=O)N[C@@H](CC(C)C)C(=O)N[C@@H](CC(C)C)C(=O)N[C@@H](CC(C)C)C(=O)N[C@@H](CCCCN)C(=O)N[C@@H](C)C(=O)N[C@@H](C)C(=O)NCC(=O)N[C@@H](Cc1c[nH]c2ccccc12)C(N)=O [HHK] | 5.25 ± 1.48 | 3.15 ± 0.07 | 1.75 ± 0.21 | 12.7 ± 1.91 | 0.68 | 0.20 | 149 | 1133 | 111 | 160
3 | CC(C)C[C@H](NC(=O)CN)C(=O)N[C@@H](CC(C)C)C(=O)N[C@@H](CCC(=O)O)C(=O)N[C@@H](CC(C)C)C(=O)N[C@@H](CC(C)C)C(=O)N[C@@H](CCCCN)C(=O)N[C@@H](CC(C)C)C(=O)N[C@@H](CC(C)C)C(=O)N[C@@H](CC(C)C)C(=O)N[C@@H](CCC(=O)O)C(=O)N[C@@H](C)C(=O)N[C@@H](C)C(=O)NCC(=O)N[C@@H](Cc1c[nH]c2ccccc12)C(N)=O [EKE] | 5.15 ± 0.21 | 1.8 ± 0.28 | 1.3 ± 0.14 | 8 ± 0.71 | 2.75 | 1.63 | 75 | 738 | 438 | 657
4 | CC(C)C[C@H](NC(=O)CN)C(=O)N[C@@H](CC(C)C)C(=O)N[C@@H](CC(=O)O)C(=O)N[C@@H](CC(C)C)C(=O)N[C@@H](CC(C)C)C(=O)N[C@@H](CCCCN)C(=O)N[C@@H](CC(C)C)C(=O)N[C@@H](CC(C)C)C(=O)N[C@@H](CC(C)C)C(=O)N[C@@H](CCCCN)C(=O)N[C@@H](C)C(=O)N[C@@H](C)C(=O)NCC(=O)N[C@@H](Cc1c[nH]c2ccccc12)C(N)=O [DKK] | 3.4 ± 0.28 | 1.95 ± 0.35 | 1.2 ± 0.14 | 10.4 ± 1.7 | 2.75 | 6.88 | 47 | 463 | 227 | 156
5 | CC(C)C[C@H](NC(=O)CN)C(=O)N[C@@H](CC(C)C)C(=O)N[C@@H](CC(=O)O)C(=O)N[C@@H](CC(C)C)C(=O)N[C@@H](CC(C)C)C(=O)N[C@@H](CCCCN)C(=O)N[C@@H](CC(C)C)C(=O)N[C@@H](CC(C)C)C(=O)N[C@@H](CC(C)C)C(=O)N[C@@H](CCC(=O)O)C(=O)N[C@@H](C)C(=O)N[C@@H](C)C(=O)NCC(=O)N[C@@H](Cc1c[nH]c2ccccc12)C(N)=O [DKE] | 7.8 ± 1.41 | 2.1 | 1.57 ± 0.33 | 9.93 ± 0.25 | 0.56 | 0.46 | 21 | 747 | 469 | 411
6 | CC(C)C[C@H](NC(=O)CN)C(=O)N[C@@H](CC(C)C)C(=O)N[C@@H](Cc1c[nH]cn1)C(=O)N[C@@H](CC(C)C)C(=O)N[C@@H](CC(C)C)C(=O)N[C@@H](Cc1c[nH]cn1)C(=O)N[C@@H](CC(C)C)C(=O)N[C@@H](CC(C)C)C(=O)N[C@@H](CC(C)C)C(=O)N[C@@H](CCC(=O)O)C(=O)N[C@@H](C)C(=O)N[C@@H](C)C(=O)NCC(=O)N[C@@H](Cc1c[nH]c2ccccc12)C(N)=O [HHE] | 18.4 ± 3.75 | 16.7 ± 2.26 | 10.8 ± 0.78 | 53.2 ± 5.3 | 1.00 | 0.75 | 143 | 842 | 113 | 411
